For seven molecules, IC50 and inhibition results are on record in PubChem BioAssay AID624129 (Sanford-Burnham Center for Chemical Genomics, 2012).

Active and inactive are the calls of the source. The rule behind the calls is not given here.

Holding throughout (assay): potency against CXCR6 with APJ panel – cell-based, beta-arrestin, DiscoveRx, uHTS hits, dose response (AID 624129)
The target in assay [1] is Beta-galactosidase (Escherichia coli) (UniProt Q8VNN2). The note with it: CXCR6 beta-arrestin (DiscoveRx) antagonist cell assay, b-galactosidase.
Sequence of Beta-galactosidase (Escherichia coli) (Q8VNN2 whole entry, looked up): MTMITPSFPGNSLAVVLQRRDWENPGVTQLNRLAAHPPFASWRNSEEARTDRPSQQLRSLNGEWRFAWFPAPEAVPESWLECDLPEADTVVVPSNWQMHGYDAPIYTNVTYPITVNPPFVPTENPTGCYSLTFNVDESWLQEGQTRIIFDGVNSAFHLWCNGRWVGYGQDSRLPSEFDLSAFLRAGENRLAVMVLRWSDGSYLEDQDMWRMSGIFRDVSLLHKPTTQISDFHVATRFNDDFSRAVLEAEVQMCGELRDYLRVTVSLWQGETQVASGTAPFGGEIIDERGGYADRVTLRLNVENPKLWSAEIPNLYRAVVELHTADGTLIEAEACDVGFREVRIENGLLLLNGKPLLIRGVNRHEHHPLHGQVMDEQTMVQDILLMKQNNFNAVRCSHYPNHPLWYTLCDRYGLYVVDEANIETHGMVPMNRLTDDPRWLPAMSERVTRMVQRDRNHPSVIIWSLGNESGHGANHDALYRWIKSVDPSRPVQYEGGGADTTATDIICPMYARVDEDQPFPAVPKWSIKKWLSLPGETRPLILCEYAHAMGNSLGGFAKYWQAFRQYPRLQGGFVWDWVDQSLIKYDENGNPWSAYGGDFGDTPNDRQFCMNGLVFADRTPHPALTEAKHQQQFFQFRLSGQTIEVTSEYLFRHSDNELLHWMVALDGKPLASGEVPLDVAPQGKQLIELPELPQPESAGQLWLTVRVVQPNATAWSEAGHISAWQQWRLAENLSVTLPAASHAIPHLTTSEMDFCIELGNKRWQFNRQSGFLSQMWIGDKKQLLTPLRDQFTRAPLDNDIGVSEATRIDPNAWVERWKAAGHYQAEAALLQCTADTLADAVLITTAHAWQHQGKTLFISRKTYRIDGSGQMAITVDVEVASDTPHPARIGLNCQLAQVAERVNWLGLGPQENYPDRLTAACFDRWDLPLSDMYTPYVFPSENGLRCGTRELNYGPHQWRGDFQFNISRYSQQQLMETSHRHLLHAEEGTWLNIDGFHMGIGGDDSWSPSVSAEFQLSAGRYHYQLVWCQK
In assay [2] the target is C-X-C chemokine receptor type 6 (Homo sapiens) (UniProt O00574). As to conditions: CXCR6 beta-arrestin (DiscoveRx) antagonist cell assay; for inhibition: CXCR6, run 1, dose range 2, at 80 µM (top of the series).
Sequence of C-X-C chemokine receptor type 6 (Homo sapiens) (O00574 whole entry, looked up): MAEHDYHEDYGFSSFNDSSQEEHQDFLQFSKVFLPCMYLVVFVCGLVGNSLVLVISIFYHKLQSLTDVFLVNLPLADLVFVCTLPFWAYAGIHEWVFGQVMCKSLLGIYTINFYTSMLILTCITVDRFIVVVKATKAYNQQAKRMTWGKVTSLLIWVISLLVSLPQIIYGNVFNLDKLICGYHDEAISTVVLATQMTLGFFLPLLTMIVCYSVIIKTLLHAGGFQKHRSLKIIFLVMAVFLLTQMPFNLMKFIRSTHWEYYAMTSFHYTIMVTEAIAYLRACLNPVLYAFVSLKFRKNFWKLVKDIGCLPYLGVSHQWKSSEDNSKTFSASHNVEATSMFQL
The target in assay [3] is C-C chemokine receptor type 6 (Homo sapiens) (UniProt P51684). As to conditions: CXCR6 beta-arrestin (DiscoveRx) antagonist cell assay.
Assay [4] addresses Apelin receptor (Homo sapiens) (UniProt P35414). As to conditions: CXCR6 beta-arrestin (DiscoveRx) antagonist cell assay, APJ.
Where [5] appears, read: dose range 1, mean IC50 across replicates.
Where [6] appears, read: CXCR6, dose range 1, mean IC50 across replicates.
[7] abbreviates: CCR6, dose range 1, mean IC50 across replicates.

For `CC(Oc1ccc(Br)cc1)C(=O)Nc1nc(-c2ccccn2)cs1` (stereo not given), the IC50 (commonly the concentration that inhibits the measured activity by half) in assay [1] (dose range 1) was > 80 µM (inactive); in assay [1] (setting [5]), above 80 µM; in assay [2] (CXCR6, dose range 1), 6.74 µM; in assay [2] (setting [6]), 5.51 µM; in assay [2] (CXCR6, run 1, dose range 2), 4.23 µM; in assay [2] (CXCR6, run 2, dose range 1) it was 6.13 µM. The IC50 in assay [2] (CXCR6, run 2, dose range 2) is 4.93 µM; in assay [3] (CCR6, dose range 1), 5.51 µM; in assay [3] (setting [7]) it was 6.66 µM; in assay [3] (CCR6, run 2, dose range 1) it was 7.8 µM; in assay [4] (dose range 1), 6.97 µM; in assay [4] (setting [5]), 5.95 µM. Also, the IC50 came to 5.67 µM in assay [4] (run 2, dose range 1) and 5.22 µM in assay [4] (run 3, dose range 1).

Turning to `COc1ccc(C[C@@H]2OC3(C=CC(=O)C=C3)O[C@H]2Cc2ccc(OC)cc2)cc1`, the IC50 in assay [1] (dose range 1) is > 80 µM (inactive); in assay [1] (setting [5]), above 80 µM; in assay [2] (CXCR6, dose range 1) it was 5.57 µM; in assay [2] (setting [6]), 5.59 µM; in assay [2] (CXCR6, run 1, dose range 2), 5.41 µM; in assay [2] (CXCR6, run 2, dose range 1), 4.23 µM. For the same molecule, the IC50 in assay [2] (CXCR6, run 2, dose range 2) was 7.14 µM; in assay [3] (CCR6, dose range 1) it was 3.92 µM; in assay [3] (setting [7]), 3.98 µM; in assay [3] (CCR6, run 2, dose range 1), 4.05 µM; in assay [4] (dose range 1), 8.04 µM; in assay [4] (setting [5]), 7.02 µM. Moreover, the IC50 in assay [4] (run 2, dose range 1) is 6.89 µM; in assay [4] (run 3, dose range 1), 6.14 µM.

Consider `COc1ccc(N2C(=O)CC(Sc3nnnn3-c3ccc(F)cc3)C2=O)cc1` (stereo not given), for which the IC50 is > 80 µM (inactive) in assay [1] (dose range 1); above 80 µM in assay [1] (setting [5]); > 80 µM (inactive) in assay [2] (CXCR6, dose range 1); above 80 µM in assay [2] (setting [6]); above 80 µM in assay [2] (CXCR6, run 2, dose range 1); 8.24 µM in assay [3] (CCR6, dose range 1). The IC50 in assay [3] (setting [7]) is 9.45 µM; in assay [3] (CCR6, run 2, dose range 1), 10.7 µM; in assay [4] (dose range 1), 10 µM; in assay [4] (setting [5]), 10 µM; in assay [4] (run 2, dose range 1), above 80 µM; in assay [4] (run 3, dose range 1), above 80 µM. In addition, the inhibition – broadly, the change of the read-out against control, counted positive when it falls – in assay [2] was -50.3%.

Regarding `O=C(Nc1nnc(SCc2ccc(F)cc2)s1)c1ccccn1`, the IC50 in assay [1] (dose range 1) is > 80 µM (inactive); in assay [1] (setting [5]) it was above 80 µM; in assay [2] (setting [6]), 4.08 µM; in assay [2] (CXCR6, run 1, dose range 2), 5.5 µM; in assay [2] (CXCR6, run 2, dose range 1) it was 3.49 µM; in assay [2] (CXCR6, run 2, dose range 2), 3.25 µM. For the same molecule, the IC50 in assay [3] (CCR6, dose range 1) was 4.29 µM; in assay [3] (setting [7]) it was 4.53 µM; in assay [3] (CCR6, run 2, dose range 1), 4.78 µM; in assay [4] (dose range 1), 3.1 µM; in assay [4] (setting [5]) it was 3.6 µM; in assay [4] (run 2, dose range 1) it was 3.87 µM. The molecule also came in with an IC50 in assay [4] (run 3, dose range 1) of 3.84 µM.

`CC1(C)CC(=O)C(C=Nc2ccc(C(=O)c3ccccc3)cc2N=CC2=C(O)CC(C)(C)CC2=O)=C(O)C1`: the IC50 in assay [1] (dose range 1) was > 80 µM (inactive); in assay [1] (setting [5]), above 80 µM; in assay [2] (setting [6]) it was 11.2 µM; in assay [2] (CXCR6, run 1, dose range 2), 0.963 µM; in assay [2] (CXCR6, run 2, dose range 1), 36.3 µM; in assay [2] (CXCR6, run 2, dose range 2), 2.7 µM. Also, the concentration for half-maximal inhibition (IC50) in assay [3] (CCR6, dose range 1) was 3.9 µM; in assay [3] (setting [7]), 5.09 µM; in assay [3] (CCR6, run 2, dose range 1) it was 6.27 µM; in assay [4] (setting [5]), 60 µM; in assay [4] (run 2, dose range 1), 62.7 µM; in assay [4] (run 3, dose range 1) it was 75.9 µM. In addition, the IC50 result in assay [2] (CXCR6, dose range 1) was “inactive”; in assay [4] (dose range 1), “inactive”.

For the molecule `Cc1c(Nc2cc(Cl)c3nonc3c2[N+](=O)[O-])c(=O)n(-c2ccccc2)n1C`, the IC50 was > 80 µM (inactive) in assay [1] (dose range 1); above 80 µM in assay [1] (setting [5]); 3.95 µM in assay [2] (CXCR6, dose range 1); 3.92 µM in assay [2] (setting [6]); 3.59 µM in assay [2] (CXCR6, run 1, dose range 2); 4.6 µM in assay [2] (CXCR6, run 2, dose range 1). Further, the IC50 in assay [2] (CXCR6, run 2, dose range 2) is 3.57 µM; in assay [3] (CCR6, dose range 1), 3.16 µM; in assay [3] (setting [7]) it was 3.35 µM; in assay [3] (CCR6, run 2, dose range 1) it was 3.55 µM; in assay [4] (dose range 1), 4.55 µM; in assay [4] (setting [5]) it was 4.26 µM. The IC50 in assay [4] (run 2, dose range 1) is 4.09 µM; in assay [4] (run 3, dose range 1), 4.16 µM.

Consider `CCN1/C(=C\C=C2\C(=O)N(c3ccccc3)C(=S)N2C)Sc2ccccc21`, for which the IC50 was > 80 µM (inactive) in assay [1] (dose range 1); above 80 µM in assay [1] (setting [5]); 7.42 µM in assay [2] (CXCR6, dose range 1); 6.24 µM in assay [2] (setting [6]); 5.05 µM in assay [2] (CXCR6, run 2, dose range 1); 4.79 µM in assay [3] (CCR6, dose range 1). In addition, the IC50 in assay [3] (setting [7]) was 5.43 µM; in assay [3] (CCR6, run 2, dose range 1) it was 6.07 µM; in assay [4] (dose range 1) it was 8.97 µM; in assay [4] (setting [5]), 11.3 µM; in assay [4] (run 2, dose range 1), 13.9 µM; in assay [4] (run 3, dose range 1) it was 11 µM. The inhibition in assay [2] stood at 91.3%.
